Reference: US10000512B2, “Compounds for the treatment of infectious diseases” (Hoffmann-La Roche Inc., priority 2014, dated 2018)

Key:
murine TLR7 = target: T1, murine TLR7 (Mus musculus, UniProt P58681); assay: HEK293-Blue-mTLR7 assay (SEAP reporter); format: cell-based; details: HEK293-Blue-mTLR7 cells, 20 hours, Quanti-Blue; read-out: EC50 murine TLR7 activation
T1 sequence (P58681 27-1050): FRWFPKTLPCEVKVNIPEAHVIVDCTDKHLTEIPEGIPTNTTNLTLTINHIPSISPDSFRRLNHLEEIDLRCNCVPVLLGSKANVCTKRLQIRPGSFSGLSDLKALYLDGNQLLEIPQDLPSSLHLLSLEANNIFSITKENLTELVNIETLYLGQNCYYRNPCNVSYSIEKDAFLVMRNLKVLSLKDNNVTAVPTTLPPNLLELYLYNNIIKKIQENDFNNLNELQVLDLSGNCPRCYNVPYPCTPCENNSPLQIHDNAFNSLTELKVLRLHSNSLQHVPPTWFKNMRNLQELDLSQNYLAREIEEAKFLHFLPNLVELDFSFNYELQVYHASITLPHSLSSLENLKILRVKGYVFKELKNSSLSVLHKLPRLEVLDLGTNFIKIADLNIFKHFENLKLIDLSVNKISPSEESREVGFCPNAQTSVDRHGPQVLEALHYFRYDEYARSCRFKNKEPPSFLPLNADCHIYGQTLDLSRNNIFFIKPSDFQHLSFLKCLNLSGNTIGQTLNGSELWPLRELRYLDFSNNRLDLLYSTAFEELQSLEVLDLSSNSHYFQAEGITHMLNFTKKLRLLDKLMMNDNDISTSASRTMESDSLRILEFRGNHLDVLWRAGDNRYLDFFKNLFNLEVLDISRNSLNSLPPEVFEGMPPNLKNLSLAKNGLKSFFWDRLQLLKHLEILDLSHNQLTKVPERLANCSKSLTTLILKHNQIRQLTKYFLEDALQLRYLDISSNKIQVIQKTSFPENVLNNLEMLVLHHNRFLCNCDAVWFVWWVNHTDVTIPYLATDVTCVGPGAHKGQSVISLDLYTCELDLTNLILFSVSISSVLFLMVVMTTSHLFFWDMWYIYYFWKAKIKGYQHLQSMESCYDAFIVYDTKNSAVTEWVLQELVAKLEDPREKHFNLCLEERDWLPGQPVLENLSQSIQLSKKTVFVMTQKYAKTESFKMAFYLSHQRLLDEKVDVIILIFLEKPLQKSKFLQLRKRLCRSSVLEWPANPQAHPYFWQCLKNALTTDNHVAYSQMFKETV
Protocol: The potency of the TLR7 agonist Example 4-A was assessed in murine TLR7 activation using a stable HEK293-Blue-mTLR7 cell line purchased from InvivoGen (Cat.#: hkb-mt1r7, San Diego, Calif., USA). Similar to the HEK293-Blue-hTLR7 as described in Example 26, the HEK293-Blue-mTLR7 was designed for studying the stimulation of murine TLR7 by monitoring the activation of NF-κB. A SEAP reporter gene was placed under the control of the IFN-β minimal promoter fused to five NF-κB and AP-1-binding sites. SEAP expression was induced by the activation of NF-κB and AP-1 upon stimulation of murine TLR7 with TLR7 ligands. SEAP expression in cell culture supernatant was determined using QUANTI-Blue™ kit (Cat.#: rep-qb1, Invivogen, San Diego, Ca, USA) at a wavelength of 640 nm, a detection medium that turns purple/blue in the presence of alkaline phosphatase.
HEK293-Blue-mTLR7 cells were incubated at a density of 250,000˜450,000 cells/mL in a volume of 180 μL in a 96-well plate in Dulbecco's Modified Eagle's medium (DMEM) containing 4.5 g/L glucose, 50 U/mL penicillin, […], […], 2 mM L-glutamine, 10% (v/v) heat-inactivated fetal bovine serum for 24 h. […] Then 20 μL of the supernatant from each well was incubated with 180 μl Quanti-blue substrate solution at 37° C. for 2 hours and the absorbance was read at 640 nm using a spectrophotometer.

human TLR7 = target: T2, human TLR7 (Homo sapiens, UniProt Q9NYK1); assay: HEK293-Blue-hTLR-7 cells assay (SEAP reporter); format: cell-based; details: 20 hours incubation
T2 sequence (Q9NYK1 27-1049): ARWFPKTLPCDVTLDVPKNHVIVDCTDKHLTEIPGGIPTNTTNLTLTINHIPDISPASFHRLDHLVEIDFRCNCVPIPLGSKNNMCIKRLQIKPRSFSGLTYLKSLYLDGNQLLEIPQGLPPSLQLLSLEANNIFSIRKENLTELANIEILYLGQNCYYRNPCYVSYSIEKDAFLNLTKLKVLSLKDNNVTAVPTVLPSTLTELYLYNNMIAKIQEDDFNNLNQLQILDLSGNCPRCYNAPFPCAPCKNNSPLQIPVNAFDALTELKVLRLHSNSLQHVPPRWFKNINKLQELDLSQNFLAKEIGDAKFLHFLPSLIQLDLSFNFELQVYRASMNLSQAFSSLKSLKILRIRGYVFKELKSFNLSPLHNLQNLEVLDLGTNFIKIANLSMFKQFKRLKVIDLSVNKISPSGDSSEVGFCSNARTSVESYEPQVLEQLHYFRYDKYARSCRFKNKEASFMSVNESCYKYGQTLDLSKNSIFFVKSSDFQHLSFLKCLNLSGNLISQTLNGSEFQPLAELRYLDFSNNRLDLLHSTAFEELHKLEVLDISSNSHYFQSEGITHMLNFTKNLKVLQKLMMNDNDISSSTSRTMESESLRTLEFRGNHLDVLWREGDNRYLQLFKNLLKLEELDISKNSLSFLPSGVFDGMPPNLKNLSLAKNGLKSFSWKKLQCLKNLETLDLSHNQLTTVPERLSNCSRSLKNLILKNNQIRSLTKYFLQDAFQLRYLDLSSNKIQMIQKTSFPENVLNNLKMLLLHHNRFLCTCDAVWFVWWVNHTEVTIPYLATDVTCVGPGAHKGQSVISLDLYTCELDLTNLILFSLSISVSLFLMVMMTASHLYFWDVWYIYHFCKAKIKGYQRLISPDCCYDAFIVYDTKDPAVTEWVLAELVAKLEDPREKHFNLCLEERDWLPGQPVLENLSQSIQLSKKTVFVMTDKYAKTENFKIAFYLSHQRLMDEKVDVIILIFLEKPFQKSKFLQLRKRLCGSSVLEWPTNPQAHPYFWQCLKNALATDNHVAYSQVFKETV
Description: A stable HEK293-Blue-hTLR-7 cell line was purchased from InvivoGen (Cat.#: hkb-ht1r7, San Diego, Calif., USA). These cells were designed for studying the stimulation of human TLR7 by monitoring the activation of NF-κB. A SEAP (secreted embryonic alkaline phosphatase) reporter gene was placed under the control of the IFN-β minimal promoter fused to five NF-κB and AP-1-binding sites. The SEAP was induced by activating NF-κB and AP-1 via stimulating HEK-Blue hTLR7 cells with TLR7 ligands. Therefore the reporter expression was regulated by the NF-κB promoter upon stimulation of human TLR7 for 20 hours. The cell culture supernatant SEAP reporter activity was determined using QUANTI-Blue™ kit (Cat.#: rep-qb1, Invivogen, San Diego, Calif., USA) at a wavelength of 640 nm, a detection medium that turns purple/blue in the presence of alkaline phosphatase.
HEK293-Blue-hTLR7 cells were incubated at a density of 250,000˜450,000 cells/mL in a volume of 180 μL in a 96-well plate in Dulbecco's Modified Eagle's medium (DMEM) containing 4.5 g/L glucose, 50 U/mL penicillin, […] streptomycin, […] Normocin, 2 mM L-glutamine, 10% (v/v) heat-inactivated fetal bovine serum for 24 h. Then the HEK293-Blue-hTLR-7 cells were incubated with addition of 20 μL test compound in a serial dilution in the presence of final DMSO at 1% and perform incubation under 37° C. in a CO2 incubator for 20 hours. Then 20 μL of the supernatant from each well was incubated with 180 μL Quanti-blue substrate solution at 37° C. for 2 h and the absorbance was read at 620˜655 nm using a spectrophotometer. The signalling pathway that TLR7 activation leads to downstream NF-κB activation has been widely accepted, and therefore similar reporter assay was also widely used for evaluating TLR7 agonist (Tsuneyasu Kaisho and Takashi Tanaka, Trends in Immunology, Volume 29, Issue 7, July 2008, […]; Hiroaki Hemmi et al, Nature Immunology 3, 196-200 (2002).

- EC50 (murine TLR7): 7.8 µM
- EC50 (human TLR7): 7.9 µM
SMILES: Nc1nc2c(sc(=O)n2[C@H]2CS[C@@H](C(O)C3CC3)O2)c(=O)[nH]1 (single isomer, unassigned) [Example 4-A]
